Ends that are not written are not given here.
What was measured:
human red blood cells = assay: Hemolytic activity; assay type: cell-based; conditions: 37 °C, 1 h, absorbance at 570 nm, positive control 0.1% Triton X-100, method of Käber modified by Achmarine
Description: Figure 1 Screening, antimicrobial and hemolytic activities of Kn2-7 in vitro. (A) Multiple alignments of Kn2-7 and its seven derivatives. (B) Predicted secondary structure of Kn2-7 and its seven derivatives. (C) Antibacterial activity screening of Kn2-7 and its seven derivative peptides. (D) Hemolytic activity of Kn2-7. The hemolytic activities of the Kn2-7 and BmKn2 peptides were estimated by monitoring the increase in the absorbance at 570 nm after incubating human red blood cells with different peptide concentrations at 37 °C for 1 h. The positive control was 0.1% Triton X-100, and 0.85% saline was used as a blank. […] It is read as >100 for BmKn2, Kn2-3 and Kn2-4, and as 100 for Kn2-1, Kn2-2, Kn2-5 and Kn2-6.
The hemolytic activities of Kn2-7 and BmKn2 peptides were tested against human red blood cells. HC50 values were obtained according to the method of Käber, modified by Achmarine. Saline solution at a concentration of 0.85% was used as the negative control, and 0.1% Triton X-100 was used as the positive control.

P. aeruginosa AB93066 = assay: MIC, broth microdilution (CLSI); assay type: cell-based, Pseudomonas aeruginosa; conditions: P. aeruginosa AB93066, Gram-negative, 96-well
Description: (§1) S. aureus AB94004, S. aureus ATCC 25923, E. coli AB94012, E. coli ATCC 25922, Pseudomonas aeruginosa AB93066, Bacillus thuringiensis AB92037, Bacillus subtilis AB91021, and Micrococcus luteus AB93113 were purchased from the China Center of Type Culture Collection (CCTCC).
(§2) The MIC was determined via a microdilution assay in 96-well microtiter plates according to the broth microdilution guideline of Clinical and Laboratory Standards Institute (CLSI).

E. coli AB94012 = assay type: cell-based; conditions: E. coli AB94012, Gram-negative; broth microdilution, 96-well
Description: These peptides were used to determine the inhibitory activities against the representative Gram-positive bacteria S. aureus AB94004 and the representative Gram-negative bacteria E. coli AB94012.
as §1, §2

B. subtilis AB91021 = assay: MIC, broth microdilution (CLSI); assay type: cell-based, Bacillus subtilis; conditions: B. subtilis AB91021, Gram-positive, 96-well
Description: as §1, §2

Biolayer interferometry = assay type: binding, E. coli; conditions: 10 µg/mL biotinylated peptide on biosensor tips, 500 µg/mL LPS, 10 mM HEPES pH 7.4, 0.14 M NaCl, 30°C
Description: Figure 7 Binding assay of Kn2-7 and LTA or LPS. (A) Interaction of 10 µg/ml of Kn2-7 with 500 µg/ml of LPS or 500 µg/mL of LTA. Curve A3 is LPS, curve B3 is LTA and curve C3 is buffer. (B) Interaction of 10 µg/mL of BmKn2 with 500 µg/mL of LPS or 500 µg/mL of LTA. Curve D3 is LPS, curve E3 is LTA and curve F3 is the buffer. (C) MICs of Kn2-7 and BmKn2 treated with LTA or LPS against S. aureus and E. coli.
Biolayer Interferometry (BLI) experiments were performed on OCT RED (FortéBio, Inc.). A total of 500 µg/mL of lipoteichoic acid from S. aureus (LTA, Sigma, L2515), lipopolysaccharides from E. coli (LPS, Sigma, L2880) or buffer (10 mM HEPES, pH 7.4 and 0.14 M NaCl) was dispensed into 96-well microtiter plates at a volume of 200 µl per well. The operating temperature was 30°C. Biosensor tips (FortéBio, Inc., Menlo Park, CA) were pre-wetted with the buffer for 60 seconds at baseline. Then, 10 µg/mL Biotin-Kn2-7 or Biotin-BmKn2 was loaded onto the biosensor tips for 900 seconds. Baseline 2 was subsequently established for 300 seconds. Dissociation of Kn2-7 or BmKn2 occurred for 900 seconds in the buffer. Data were generated automatically by the Octet® User Software (version 3.1) and were subsequently analyzed from the resultant text files using Excel 2000.

S. aureus AB94004 = assay: Bactericidal assay (time-killing); assay type: cell-based; conditions: samples at 0, 5, 15, 30, 60 min, colony counts, average of three dishes
Description: Figure 5 Bactericidal assays of the Kn2-7 and BmKn2 peptides against S. aureus and E. coli AB94012. Set point indicates untreated bacteria, and 0 minutes was defined as the time of the first sample collection, which was immediately after mixing bacteria and Kn2-7 or BmKn2. The other samples were collected at 5 min, 15 min, 30 min or 60 min. All of the counts were the average of three dishes, and the experiment was repeated at least three times. (A) Time-killing curve of Kn2-7 against S. aureus AB94004. (B) Time-killing curve of BmKn2 against S. aureus AB94004. (C) Time-killing curve of Kn2-7 against E. coli AB94012.
Bactericidal curves for Kn2-7 and BmKn2 were determined against S. aureus AB94004 and E. coli AB94012. A 400 µl aliquot of the peptide solution was added to 1,600 µl of a bacterial suspension. At each time point, 200 µl of the treated bacterial suspension was transferred to a sterilized 1.5-ml tube. After centrifugation at 1,000×g for 5 min, the supernatant was removed, and the pellet was resuspended in 200 µl of LB medium. The bacterial suspensions were placed on agar plates and incubated at 37°C until viable colonies could be counted.

| Substance | HC50 (hemolytic activity) (human red blood cells) | MIC (P. aeruginosa AB93066) | MIC (E. coli AB94012) | MIC (B. subtilis AB91021) | Binding to LPS (BLI) (Biolayer interferometry) | Bactericidal effect (time-killing curve) (S. aureus AB94004) |
| --- | --- | --- | --- | --- | --- | --- |
| FIGAIARLLSKIF-NH2 [BmKn2] | 17.13 µg/mL | 50 µg/mL | >100 µg/mL | 12.5 µg/mL |  |  |
| FIKRIARLLRKIF [Kn2-7] |  |  |  |  | able to bind to LPS | bactericidal effects |
